Assay results from patent publication US9504676B2, “Molecules inhibiting a metabolic pathway involving the Syk protein tyrosine kinase and method for identifying said molecules” (CENTRE NATIONAL DE LA RECHERCHE SCIENTIFIQUE, priority 2008, dated 2016).

target: T1, murine Syk tyrosine kinase protein (GST:Syk 6-242) (Mus musculus, UniProt P48025); test: ADA method: displacement of the binding of scFv G4G11 with Syk (ELISA); details: ADA method; read-out: estimated IC50 for competing with the binding of scFv G4G11 with Syk
T1 construct: made in house
Outline: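 GST:Syk 6-242 (murine) was immobilised at 10 μg ml^−1 and pre-incubated 1 h at ambient temperature with compounds at 10 μM final in PBS. scFv G4G11 was then added at 100 nM for 1 h. Bound scFv was detected via its C-terminal c-myc tag with HRP-9E10, and % inhibition was taken from signals with versus without compound.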

| Compound | IC50 |
| --- | --- |
| COC(=O)c1ccccc1-c1ccc(/C=C2/SC(=S)N(Cc3ccccc3)C2=O)o1 [Molecule C-13, methyl 2-{5-[(3-benzyl-4-oxo-2-thioxo-1,3-thiazolidin-5-ylidene)methyl]-2-furyl}benzoate] | ~4 µM |

same assay, conditions: small molecules at 10 μM, scFv G4G11 100 nM; read-out: In vit. inhib.: mean inhibition % of the binding of scFv G4G11 with Syk in the ADA method

| Compound | inhibition at 10 µM |
| --- | --- |
| O=C(C1=C(O)C(=O)N(Cc2cccnc2)C1c1cccc(Oc2ccccc2)c1)c1ccc(Cl)cc1 (stereo not drawn) [Molecule 1, 4-(4-chlorobenzoyl)-3-hydroxy-5-(3-phenoxyphenyl)-1-(3-pyridinylmethyl)-1,5-dihydro-2H-pyrrol-2-one] | 86.5% |
| CCOC(=O)C1=C(C)NC2=C(C(=O)c3ccccc32)C1c1cc(Br)ccc1OCC(=O)O (stereo not drawn) [Molecule 3, {4-bromo-2-[3-(ethoxy carbonyl)-2-methyl-5-oxo-4,5-dihydro-1H-indeno[1,2-b]pyridin-4-yl]phenoxy} acetic acid] | 81% |
| COc1cccc(C2C(C(=O)c3ccc(C)cc3)=C(O)C(=O)N2CCCN2CCOCC2)c1 (stereo not drawn) [Molecule 4, 3-hydroxy-5-(3-methoxyphenyl)-4-(4-methylbenzoyl)-1-[3-(4-morpholinyl)propyl]-1,5-dihydro-2H-pyrrol-2-one] | 79.5% |
| CCOC(=O)c1ccc(N2C(=O)C(O)=C(C(=O)c3ccccc3)C2c2ccc(ON)cc2OC)cc1 (stereo not drawn) [Molecule 6] | 73.5% |
| CCOC(=O)c1sc(N2C(=O)C(O)=C(C(=O)c3ccc(F)cc3)C2c2ccc(C)cc2)nc1C (stereo not drawn) [Molecule 10, ethyl 2-[3-(4-fluorobenzoyl)-4-hydroxy-2-(4-methylphenyl)-5-oxo-2,5-dihydro-1H-pyrrol-1-yl]-4-methyl-1,3-thiazole-5-carboxylate] | 71% |
| COc1ccccc1C(=O)Nc1ccc(-c2nnc(SCC(=O)c3ccccc3)n2C)cc1 [Molecule 15, 2-methoxy-N-(4-(4-methyl-5-[(2-oxo-2-phenylethyl)thio]-4H-1,2,4-triazol-3-yl)phenyl)benzamide] | 67.5% |
| COc1ccc(C)cc1NC(=O)c1ccc(CN2CCC(Cc3ccccc3)CC2)cc1 [Molecule 17, 4-[(4-benzyl-1-piperidinyl)methyl}-N-(2-methoxy-5-methylphenyl)benzamide] | 63% |
| COc1ccc(S(=O)(=O)N(CCc2ccccc2)CC(=O)Nc2ccc(C(N)=O)cc2)cc1 [Molecule 18] | 63% |
| CCOC(=O)c1ccc(NC(=O)CSc2nnc(-c3ccco3)c(-c3ccco3)n2)cc1 [Molecule 54, ethyl 4-({[(5,6-di-2-furyl-1,2,4-triazin-3-yl)thio]acetyl}amino)benzoate] | 43% |
| COc1cc(-c2nnc(SCC(=O)Nc3ccc(Cl)cc3)n2CCc2ccccc2)cc(OC)c1OC [Molecule 59] | 40% |
| CCOc1ccc(NC(=O)CC2C(=O)N(c3ccc(OC)cc3)C(=S)N2CCN2CCOCC2)cc1 (stereo not drawn) [Molecule 84, N-(4-ethoxyphenyl)-2-{1-(4-methoxyphenyl)-3-[2-(4-morpholinyl)ethyl]-5-oxo-2-thioxo-4-imidazolidinyl}acetamide] | 19% |
| COC(=O)c1ccccc1-c1ccc(/C=C2/SC(=S)N(Cc3ccccc3)C2=O)o1 [Molecule C-13, methyl 2-{5-[(3-benzyl-4-oxo-2-thioxo-1,3-thiazolidin-5-ylidene)methyl]-2-furyl}benzoate] | 81% |

Results, then the compound that gave them:

| inhibition at 10 µM | Compound |
| --- | --- |
| 81% | COc1ccc(C2C(C(=O)c3cccs3)=C(O)C(=O)N2CCCn2ccnc2)c(OC)c1 (stereo not drawn) [Molecule 2] |
| 53.5% | O=C(NCc1nnc(NCc2nc3ccccc3c(=O)[nH]2)n1-c1ccccc1)c1ccccc1F [Molecule 29] |
| 48% | O=C(Nc1ccccc1)c1ccc(NCCN2CCOCC2)c(S(=O)(=O)N2CCOCC2)c1 [Molecule 46, 4-{[2-(4-morpholinyl)ethyl]amino}-3-(4-morpholinylsulphonyl)-N-phenylbenzamide] |
| 46.5% | Cc1cc(C(=O)Nc2ccccc2C(=O)O)ccc1NC(=O)COc1ccc(C(C)C)cc1 [Molecule 49, 2-[(4-{[(4-isopropylphenoxy)acetyl]amino}-3-methylbenzoyl)amino] benzoic acid] |
| 39.5% | CCOC(=O)c1ccc(NC(=O)CC2C(=O)N(c3ccc(Cl)cc3)C(=S)N2Cc2cccnc2)cc1 (stereo not drawn) [Molecule 61] |
| 35% | C=CCn1c(SCC(=O)Nc2cccc(OC)c2)nnc1C(C)NC(=O)c1ccccc1 (stereo not drawn) [Molecule 66, N-{1-[4-allyl-5-({2-[(3-methoxyphenyl)amino]-2-oxoethyl}thio)-4H-1,2,4-triazol-3-yl]ethyl} benzamide] |
| 27% | C=CCn1c(CNC(=O)c2cccc(C)c2)cnc1SCC(=O)Nc1cccc(C(=O)OC(C)C)c1 [Molecule 75] |
| 20% | CCn1c(CCC(=O)c2ccc(Cl)cc2)nnc1SCC(=O)Nc1ccc(Br)c(C)c1C [Molecule 82] |
